From US11512053B2, “Arginine methyltransferase inhibitors and uses thereof” (priority 2013, dated 2022) come the findings set out here.

This assay deals with full-length human PRMT6 (Flag- and His-tagged) (Homo sapiens, UniProt Q96LA8). Kind of assay: PRMT6 Biochemical Assay (3H-SAM Flashplate, peptide substrate). An excerpt:
General Materials. S-adenosylmethionine (SAM), S-adenosylhomocysteine (SAH), bicine, Tween20, dimethylsulfoxide (DMSO), bovine skin gelatin (BSG), sodium butyrate and Tris(2-carboxyethyl)phosphine hydrochloride solution (TCEP) were purchased from Sigma-Aldrich at the highest level of purity possible. ^3H-SAM was purchase from American Radiolabeled Chemicals with a specific activity of 80 Ci/mmol. 384-well streptavidin Flashplates were purchased from PerkinElmer.
Substrates. Peptide representative of human histone H4 residues 36-50 was synthesized with an N-terminal linker-affinity tag motif and a C-terminal amide cap by 21st Century Biochemicals. The peptide was purified by high-performance liquid chromatography (HPLC) to greater than 95% purity and confirmed by liquid chromatography mass spectrometry (LC-MS). The sequence was Biot-Ahx-[…]-amide and contained a monomethylated lysine at position 44 (SEQ ID NO.:5).
Molecular Biology: Full-length human PRMT6 (NM_018137.2) transcript clone was amplified from an HEK 293 cDNA library, incorporating a flanking 5′ sequence encoding a FLAG tag ([…]) (SEQ ID NO.:6) fused directly to Ser 2 of PRMT6 and a 3′ sequence encoding a hexa His sequence (HHHHHH) (SEQ ID NO.:17) fused directly to Asp 375. The amplified gene was subcloned into pFastBacMam (Viva Biotech).
Protein Expression. Recombinant baculovirus were generated according to Bac-to-Bac kit instructions (Life Technologies). […] Infections were carried out at 37° C. for 48 hours, harvested by centrifugation, and stored at −80° C. for purification.
Protein Purification. […] Column was washed with 20 mM imidazole in the same buffer and Flag-PRMT6-His was eluted with 150 mM imidazole. Pooled fractions were dialysed against buffer N^1-A and further purified by anti-flag M2 affinity chromatography. Flag-PRMT6-His was eluted with 200 ug/ml FLAG peptide in the same buffer. Pooled fractions were dialysed in 20 mM Tris, 150 mM NaCl, 10% glycerol and 5 mM β-mercaptoethanol, pH 7.8. The purity of recovered protein was 95%.
General Procedure for PRMT6 Enzyme Assays on Peptide Substrates. The assays were all performed in a buffer consisting of 20 mM Bicine (pH=7.6), 1 mM TCEP, 0.005% BSG, and 0.002% Tween 20, prepared on the day of use. Compounds in 100% DMSO (1 ul) were spotted into a polypropylene 384-well V-bottom plates (Greiner) using a Platemate Plus outfitted with a 384-channel head (Thermo Scientific). DMSO (1 ul) was added to Columns 11, 12, 23, 24, rows A-H for the maximum signal control and 1 ul of SAH, a known product and inhibitor of PRMT6, was added to columns 11, 12, 23, 24, rows I-P for the minimum signal control. A cocktail (40 ul) containing the PRMT6 enzyme was added by Multidrop Combi (Thermo-Fisher). The compounds were allowed to incubate with PRMT6 for 30 min at room temperature, then a cocktail (10 ul) containing SAM and peptide was added to initiate the reaction (final volume=51 ul). The final concentrations of the components were as follows: PRMT6 was 1 nM, ^3H-SAM was 200 nM, non-radiolabeled SAM was 250 nM, peptide was 75 nM, SAH in the minimum signal control wells was 1 mM, and the DMSO concentration was 2%. The assays were stopped by the addition of non-radiolabeled SAM (10 ul) to a final concentration of 400 uM, which dilutes the ^3H-SAM to a level where its incorporation into the peptide substrate is no longer detectable. 50 ul of the reaction in the 384-well polypropylene plate was then transferred to a 384-well Flashplate and the biotinylated peptides were allowed to bind to the streptavidin surface for at least 1 hour before being washed once with 0.1% Tween20 in a Biotek ELx405 plate washer. The plates were then read in a PerkinElmer TopCount plate reader to measure the quantity of ^3H-labeled peptide bound to the Flashplate surface, measured as disintegrations per minute (dpm) or alternatively, referred to as counts per minute (cpm). […]

Where [1] appears, read: read-out: Biochemical IC50 PRMT6.
[2] abbreviates: single experiment or average of multiple experiments, read-out: Biochemical IC50 PRMT6.

pIC50: −log10 of the molar value. Where two headings read alike, the source gives them in different places. Bounds are passed on as bounds.

Usually pIC50 stands for −log10 of the IC50, conventionally taken in molar units.

Chain of full-length human PRMT6 (Flag- and His-tagged) (Q96LA8 with tags, fused parts or gaps): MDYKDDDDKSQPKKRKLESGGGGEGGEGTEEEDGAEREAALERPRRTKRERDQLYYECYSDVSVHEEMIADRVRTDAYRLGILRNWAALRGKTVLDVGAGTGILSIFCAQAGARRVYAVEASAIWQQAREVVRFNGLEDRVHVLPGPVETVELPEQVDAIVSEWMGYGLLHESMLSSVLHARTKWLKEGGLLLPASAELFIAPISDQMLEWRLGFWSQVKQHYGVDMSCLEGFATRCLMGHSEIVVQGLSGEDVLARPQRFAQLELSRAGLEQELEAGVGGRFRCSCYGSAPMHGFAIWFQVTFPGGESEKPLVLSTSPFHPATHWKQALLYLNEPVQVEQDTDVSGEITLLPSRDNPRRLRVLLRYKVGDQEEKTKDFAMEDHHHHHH

`CNCCN(C)Cc1c[nH]nc1C1CCC(=O)N(Cc2ccccc2)C1` (centres unmarked) [Compound 115]: the pIC50 under setting [1] is above 7.00 and the pIC50 under setting [2] is 7.20.
Turning to `CNCCN(C)Cc1c[nH]nc1C1CCC2(CC1)OCCO2` [Compound 177], the pIC50 runs as follows: under setting [1], 6.00 to 7.00; under setting [2], 6.95.
On to `CNCCN(C)Cc1c[nH]nc1C1CCC2(CC1)CC2` [Compound 144], for which the pIC50 reads like this: under setting [1], above 7.00; under setting [2], 7.45.
As for `CNCCN(C)Cc1c[nH]nc1[C@H]1CC[C@@]2(CCN(Cc3ccccc3)C2=O)CC1` [Compound 127], the pIC50 is above 7.00 under setting [1] and 7.65 under setting [2].
On to `CNCCN(C)Cc1c[nH]nc1[C@H]1CC[C@H](C(C)C)CC1` [Compound 180], for which the pIC50 is above 7.00 under setting [1] and 7.83 under setting [2].
`CNCCN(C)Cc1c[nH]nc1[C@H]1CC[C@@]2(CCN(Cc3ccc(F)cc3)C2=O)CC1` [Compound 125]: the pIC50 runs as follows: under setting [1], above 7.00; under setting [2], 7.88.
Take `CCN1CC2(CCC(c3n[nH]cc3CN(C)CCNC)CC2)N(C)C1=O` (centres unmarked) [Compound 154]: the pIC50 is above 7.00 under setting [1] and 7.35 under setting [2].
As to `CNCCN(C)Cc1c[nH]nc1C1CCC(=O)N(CCc2ccccc2)C1` (centres unmarked) [Compound 110], the pIC50 runs as follows: under setting [1], above 7.00; under setting [2], 7.53.
With `CNCCN(C)Cc1c[nH]nc1[C@H]1CC[C@]2(CCOC2)CC1` [Compound 142], the pIC50 is, setting by setting: under setting [1], above 7.00; under setting [2], 7.70.
The matching figures for `CNCCN(C)Cc1c[nH]nc1C1CCC2(CCCCO2)CC1` (centres unmarked) [Compound 137]: above 7.00 and 7.63.
The like results for `CNCCN(C)Cc1c[nH]nc1C1CCC(OCC(C)C)CC1` (centres unmarked) [Compound 153] were, in that order, above 7.00 and 7.55.
The like results for `CNCCN(C)Cc1c[nH]nc1C1CCC2(CC1)CNC(=O)C2` (centres unmarked) [Compound 147] were, in that order, above 7.00 and 7.49.
Turning to `CNCCN(C)Cc1c[nH]nc1[C@H]1CC[C@H](OC2CCCCC2)CC1` [Compound 139], the pIC50 under setting [1] is above 7.00 and the pIC50 under setting [2] is 7.65.
In the case of `CCOC1CC2(CCC(c3n[nH]cc3CN(C)CCNC)CC2)CC1OCC` (centres unmarked) [Compound 168], the negative-log IC50 (pIC50) was above 7.00 under setting [1] and 7.35 under setting [2].
The like results for `CNCCN(C)Cc1c[nH]nc1C1CCC2(CC1)CCN(C)C2=O` (centres unmarked) [Compound 152] were, in that order, above 7.00 and 7.45.
Regarding `CCOCC1CC(COCC)CC(c2n[nH]cc2CN(C)CCNC)C1` (centres unmarked) [Compound 119], the pIC50 is, setting by setting: under setting [1], 5.52 to 6.00; under setting [2], 5.56.
Take `CNCCN(C)Cc1c[nH]nc1[C@H]1CC[C@H](OCCOc2ccc(OCCOC)cc2)CC1` [Compound 116]: the pIC50 reads like this: (Biochemical IC50 PRMT6) above 7.00; (Biochemical IC50 PRMT6, single experiment or average of multiple experiments) 7.73.
For `CNCCN(C)Cc1c[nH]nc1C1CCC(N(CC(C)C)C(=O)CC2CCOCC2)CC1` (centres unmarked) [Compound 114], the negative logarithm of the IC50 (pIC50) under setting [1] is above 7.00 and the pIC50 under setting [2] is 7.03.
For the molecule `CNCCN(C)Cc1c[nH]nc1C1CCC(O)C2(CCCC2)C1` (centres unmarked) [Compound 182, 9-[4-({methyl[2-(methylamino)ethyl]amino}methyl)-1H-pyrazol-3-yl]spiro[4.5]decan-6-ol], the pIC50 was above 7.00 under setting [1] and 7.13 under setting [2].
Consider `CNCCN(C)Cc1c[nH]nc1C1CCC2(CC1)CN(C)C(=O)N2C` (centres unmarked) [Compound 172], for which the pIC50 is above 7.00 under setting [1] and 7.34 under setting [2].
Regarding `CNCCN(C)Cc1c[nH]nc1[C@H]1CC[C@@H](C(C)C)CC1` [Compound 181], the pIC50 reads like this: under setting [1], above 7.00; under setting [2], 7.55.
As to `CNCCN(C)Cc1c[nH]nc1[C@H]1CC[C@@]2(CCOC2)CC1` [Compound 141], the pIC50 is, setting by setting: under setting [1], above 7.00; under setting [2], 7.64.
Turning to `CNCCN(C)Cc1c[nH]nc1C1CCC2(CC1)NC(=O)NC2=O` (centres unmarked) [Compound 175], the pIC50 was above 7.00 under setting [1] and 7.42 under setting [2].
The matching figures for `CNCCN(C)Cc1c[nH]nc1C1CC(OCC(C)C)CC(OCC(C)C)C1` (centres unmarked) [Compound 122]: below 5.00 and below 5.00.
The matching figures for `CNCCN(C)Cc1c[nH]nc1[C@H]1CC[C@@H](O)C2(CCCCC2)C1` (single isomer, unassigned) [Compound 183]: above 7.00 and 7.06.
In the case of `CNCCN(C)Cc1c[nH]nc1C1CCC(C)CC1` (centres unmarked) [Compound 149], the pIC50 runs as follows: under setting [1], above 7.00; under setting [2], 8.14.
As to `CNCCN(C)Cc1c[nH]nc1[C@H]1CC[C@]2(CCN(Cc3ccc(OCCOC)cc3)C2=O)CC1` [Compound 111], the pIC50 under setting [1] was above 7.00 and the negative-log IC50 (pIC50) under setting [2] was 7.34.
The like results for `CCN1C(=O)N(C)CC12CCC(c1n[nH]cc1CN(C)CCNC)CC2` (centres unmarked) [Compound 162] were, in that order, above 7.00 and 7.21.
On to `CNCCN(C)Cc1c[nH]nc1C1CCC2(CC1)C(=O)NC(=O)N2C` (centres unmarked) [Compound 161], for which the pIC50 was above 7.00 under setting [1] and 7.14 under setting [2].
Consider `CNCCN(C)Cc1c[nH]nc1C1CCC2(CC1)C(=O)N(C)C(=O)N2C` (centres unmarked) [Compound 171], for which the pIC50 is above 7.00 under setting [1] and 7.39 under setting [2].
Consider `CNCCN(C)Cc1c[nH]nc1C1CCC(CC(C)C)CC1` (centres unmarked) [Compound 169], for which the pIC50 under setting [1] is above 7.00 and the pIC50 under setting [2] was 7.75.
In the case of `CNCCN(C)Cc1c[nH]nc1C1CCC2(CCNC2=O)CC1` (centres unmarked) [Compound 176], the pIC50 reads like this: under setting [1], above 7.00; under setting [2], 7.44.
The like results for `CNCCN(C)Cc1c[nH]nc1C1CCC(=O)N(CCC(C)C)C1` (centres unmarked) [Compound 117] were, in that order, above 7.00 and 7.02.
For `CNCCN(C)Cc1c[nH]nc1[C@H]1CC[C@H](OCCOc2ccccc2)CC1` [Compound 187], the pIC50 under setting [1] was 6.00 to 7.00 and the pIC50 under setting [2] is 6.58.
`CNCCN(C)Cc1c[nH]nc1C1CCC2(CC1)OCCCO2` [Compound 160]: the pIC50 under setting [1] was 6.00 to 7.00 and the pIC50 under setting [2] is 6.95.
Take `CNCCN(C)Cc1c[nH]nc1C1CCC2(CC1)CN(CC(C)C)C(=O)N2C` (centres unmarked) [Compound 145]: the pIC50 under setting [1] was above 7.00 and the pIC50 under setting [2] was 7.42.
Turning to `CN(CCN)Cc1c[nH]nc1CCc1ccccc1` [Compound 9], the negative logarithm of the IC50 (pIC50) runs as follows: under setting [1], above 7.00; under setting [2], 8.00.
On to `CCOC1CC(OCC)CC(c2n[nH]cc2CN(C)CCNC)C1` (centres unmarked) [Compound 132], for which the pIC50 runs as follows: under setting [1], 5.00 to 5.52; under setting [2], 5.26.
The like results for `CNCCN(C)Cc1c[nH]nc1[C@H]1CC[C@H](COC)CC1` [Compound 167] were, in that order, above 7.00 and 7.50.
The matching figures for `CNCCN(C)Cc1c[nH]nc1C1CCC(C)(C)C(O)C1` (centres unmarked) [Compound 185, 2,2-dimethyl-5-[4-({methyl[2-(methylamino)ethyl]amino}methyl)-1H-pyrazol-3-yl]cyclohexan-1-ol]: above 7.00 and 7.45.
Regarding `CC[C@H]1CC[C@H](c2n[nH]cc2CN(C)CCNC)CC1` [Compound 148], the pIC50 was above 7.00 under setting [1] and 8.09 under setting [2].
Take `CNCCN(C)Cc1c[nH]nc1C1CCC2(CC1)CCN(CC(C)C)C2=O` (centres unmarked) [Compound 164]: the pIC50 is above 7.00 under setting [1] and 7.15 under setting [2].
As for `CNCCN(C)Cc1c[nH]nc1C1CCC2(CC1)CC(=O)N(C)C2` (centres unmarked) [Compound 157], the pIC50 reads like this: under setting [1], above 7.00; under setting [2], 7.32.
